According to patent US10766917B2, “Nucleotides for the treatment of cancer” (IDENIX PHARMACEUTICALS LLC, priority 2015, dated 2020):
Where two headings read alike, the source gives them in different places.

Tests used:
Type in all cases: cell-based
[1] = test system: A498; experiment: In vitro inhibition, CellTiter-Glo (CTG) assay; conditions: 72 hr exposure
Method: (§1) Cells were grown in RPMI-1640 supplemented with L-Glutamine and 10% FBS of the following cell lines:
(§2) CCRF-CEM; HL-60; KG-1; CFPAC-1; MiaPACA-2; BxPC-3; HepG2; MDA-MB-231; HCT-116; A498; and NCI-H69
(§3) 18, 96 well plates of each cell line were seeded with the optimized number of cells per well in a total volume of 50 μper well. The plates were left overnight. Plate wells were seeded with 100 pt media for media control. The following day, cells were exposed to test compounds as described below. At the same time as drug exposure, a CTG assay was conducted on the 18th plate for the 0 hr count.
(§4) The compounds were added to cells and medium already on the plate to give desired final concentrations. 50 μL media were added to cell control wells, and 50 μL of mix added to vehicle control wells. 10 μM Doxorubicin was added to appropriate wells as control. Cells exposed to test compound were incubated at 37° C. for 72 hr followed by a CTG assay.
(§5) At the end of the 72 hr exposure period, plates were removed for a CellTiter-Glo (CTG) assay from a 37° C., 5% CO2 incubator and placed on the bench at room temperature for 30 mins. 100 μL of CellTiter-Glo reagent was added and mixed for 2 mins, followed by a further 10 min incubation at room temperature. Luminescence was recorded using Synergy 4.0.

[2] = test system: BxPC-3; experiment: In vitro inhibition, CellTiter-Glo (CTG) assay; conditions: 72 hr exposure
Method: as §1, §2, §3, §4, §5

[3] = test system: CCRF-CEM; experiment: In vitro inhibition, CellTiter-Glo (CTG) assay; conditions: 72 hr exposure
Method: as §1, §2, §3, §4, §5

[4] = test system: CFPAC-1; experiment: In vitro inhibition, CellTiter-Glo (CTG) assay; conditions: 72 hr exposure
Method: as §1, §2, §3, §4, §5

[5] = test system: HCT-116; experiment: In vitro inhibition, CellTiter-Glo (CTG) assay; conditions: 72 hr exposure
Method: as §1, §2, §3, §4, §5

[6] = test system: HL-60; experiment: In vitro inhibition, CellTiter-Glo (CTG) assay; conditions: 72 hr exposure
Method: as §1, §2, §3, §4, §5

[7] = test system: HepG2; experiment: In vitro inhibition, CellTiter-Glo (CTG) assay; conditions: 72 hr exposure
Method: as §1, §2, §3, §4, §5

[8] = test system: KG-1; experiment: In vitro inhibition, CellTiter-Glo (CTG) assay; conditions: 72 hr exposure
Method: as §1, §2, §3, §4, §5

[9] = test system: MDA-MB-231; experiment: In vitro inhibition, CellTiter-Glo (CTG) assay
Method: as §1, §2, §3, §4, §5

[10] = test system: MiaPACA-2; experiment: In vitro inhibition, CellTiter-Glo (CTG) assay; conditions: 72 hr exposure
Method: as §1, §2, §3, §4, §5

[11] = test system: NCI-H69; experiment: In vitro inhibition, CellTiter-Glo (CTG) assay; conditions: 72 hr exposure
Method: as §1, §2, §3, §4, §5

[12] = test system: HuH-1 cells; experiment: In vitro inhibition of HuH-1, MTT assay; conditions: read-out: HuH-1: relative IC50
Method: HuH-1 cells were purchased from JCRB and tested with the following method:
Cells are suspended at a specific density in a specific culture medium (see table in 2.Cell lines).
Then, 100 μl of cell suspension are plated per well in 96-well plates.
Compounds or negative controls (DMSO) are added to the cells (100 μl of a compound solution in its specific medium with a final concentration of 0.15% DMSO).
Each compound concentration is tested in duplicate (6 concentrations per compound).
Cells are incubated at 37° C. for 72 h without treating again.
SDS is added to control wells (final concentration of 1%) and kept for 15 min at 37° C. SDS 1% represents the positive control of proliferation inhibition.
Cell supernatant is removed and 100 μl of a MTT (3-[4.5-dimethylthiazol-2-yl]-2.5-diphenyltetrazolium bromide) solution in fresh medium are added per well (MTT final concentration of 0.5 mg/ml) and incubated for 4 h at 37° C.
MTT reaction is stopped and homogenized by adding 100 μl/well of SDS 10%, 0.01M HCl and incubated for 2 h at 37° C.
Absorbance is measured at 570 nm.

[13] = Homo sapiens, MDA-MB-231, 72 hr exposure

IC50 [9, 13] [nM] | IC50 [2] [nM] | IC50 [3] [nM] | IC50 [5] [nM] | IC50 [6] [nM] | IC50 [7] [nM] | IC50 ([9]; 72 hr exposure) [nM] | IC50 [10] [nM] | IC50 [11] [nM] | Structure (SMILES) | IC50 ([8]; Homo sapiens, KG-1, 72 h) [nM] | IC50 [1] [nM] | IC50 [4] [nM] | IC50 [8] [nM] | further results
1000 to 10000 |  |  |  |  |  |  |  |  | Nc1ccn([C@@H]2O[C@H](COP(=O)(O)NCc3ccccc3)[C@@H](O)C2(F)F)c(=O)n1 [Compound 117] | < 1000 |  |  |  | IC50 ([1]; Homo sapiens, A498, 72 h): < 1000 nM; IC50 ([2]; Homo sapiens, BXPC-3, 72 h): < 1000 nM; IC50 ([3]; Homo sapiens, CCRF-CEM, 72 h): < 1000 nM; IC50 ([4]; Homo sapiens, CFPAC-1, 72 h): < 1000 nM; IC50 ([5]; Homo sapiens, HCT-116, 72 h): < 1000 nM; IC50 ([6]; Homo sapiens, HL-60, 72 h): < 1000 nM; IC50 ([7]; Homo sapiens, HepG2, 72 h): < 1000 nM; IC50 ([10]; Homo sapiens, MIA PaCa-2, 72 h): < 1000 nM; IC50 ([11]; Homo sapiens, NCI-H69, 72 h): < 1000 nM
 | 10000 to 100000 | < 1000 | 10000 to 100000 | < 1000 | 1000 to 10000 | 10000 to 100000 | 10000 to 100000 | 10000 to 100000 | Cn1c(COP(=O)(NCc2ccccc2)OC[C@H]2O[C@@H](n3ccc(N)nc3=O)C(F)(F)[C@@H]2O)cnc1[N+](=O)[O-] (single isomer, unassigned) [112 (diastereomer 2)] |  | 10000 to 100000 | 1000 to 10000 | 1000 to 10000 | 
1000 to 10000 |  |  |  |  |  |  |  | 1000 to 10000 | CCOC(=O)COP(=O)(N[C@@H](CC(C)C)C(=O)OCC)OC[C@H]1O[C@@H](n2ccc(N)nc2=O)C(F)(F)[C@@H]1O (single isomer, unassigned) [108 (diastereomer 1)] | < 1000 | < 1000 |  |  | IC50 ([2]; Homo sapiens, BXPC-3, 72 h): 1000 to 10000 nM; IC50 ([3]; Homo sapiens, CCRF-CEM, 72 h): < 1000 nM; IC50 ([4]; Homo sapiens, CFPAC-1, 72 h): < 1000 nM; IC50 ([5]; Homo sapiens, HCT-116, 72 h): 1000 to 10000 nM; IC50 ([6]; Homo sapiens, HL-60, 72 h): < 1000 nM; IC50 ([7]; Homo sapiens, HepG2, 72 h): < 1000 nM; IC50 ([10]; Homo sapiens, MIA PaCa-2, 72 h): < 1000 nM
 |  |  |  |  |  |  |  |  | Nc1ccn([C@@H]2O[C@H](CO)[C@@H](O)C2(F)F)c(=O)n1 [Gemcitabine, reference compound] |  |  |  |  | IC50 ([12]; Homo sapiens, HuH-1, 72 h): < 300 nM
 |  |  |  |  |  |  |  |  | CC(C)OC(=O)[C@H](C)CCO[P@@]1(=O)OC[C@H]2O[C@@H](n3ccc(N)nc3=O)C(F)(F)[C@@H]2O1 (single isomer, unassigned; diastereoisomer 2) [Compound 120 Diastereoisomer 2] |  |  |  |  | IC50 ([12]; 72 h): < 300 nM
 |  |  |  |  |  |  |  |  | CCOC(=O)[C@@H](C)CCO[P@@]1(=O)OC[C@H]2O[C@@H](n3ccc(N)nc3=O)C(F)(F)[C@@H]2O1 (single isomer, unassigned) [Compound 122 Diastereoisomer 1] |  |  |  |  | IC50 ([12]; Homo sapiens, HuH-1, 72 h): < 300 nM
10000 to 100000 | 1000 to 10000 |  | 1000 to 10000 |  | < 1000 |  | 1000 to 10000 |  | CC(C)OP1(=O)OC[C@H]2O[C@@H](n3ccc(N)nc3=O)C(F)(F)[C@@H]2O1 (single isomer, unassigned) [102 (diastereomer 2)] | < 1000 |  | 1000 to 10000 |  | IC50 ([1]; Homo sapiens, A498, 72 h): 10000 to 100000 nM; IC50 ([11]; Homo sapiens, NCI-H69, 72 h): 10000 to 100000 nM
 | < 1000 | < 1000 | 1000 to 10000 | < 1000 | < 1000 | 1000 to 10000 | < 1000 | 10000 to 100000 | CCOC(=O)COP(=O)(N[C@@H](CC(C)C)C(=O)OCC)OC[C@H]1O[C@@H](n2ccc(N)nc2=O)C(F)(F)[C@@H]1O (single isomer, unassigned) [108 (diastereomer 2)] |  | 10000 to 100000 | < 1000 | < 1000 | 

Structure (SMILES) | IC50 [9, 13] [nM] | IC50 [2] [nM] | IC50 [3] [nM] | IC50 [5] [nM] | IC50 [6] [nM] | IC50 [7] [nM] | IC50 ([9]; 72 hr exposure) [nM] | IC50 [10] [nM] | IC50 [11] [nM] | IC50 ([8]; Homo sapiens, KG-1, 72 h) [nM] | IC50 [1] [nM] | IC50 [4] [nM] | IC50 [8] [nM] | further results
CC(C)OC(=O)[C@H](C)NP1(=O)OC[C@H]2O[C@@H](n3ccc(N)nc3=O)C(F)(F)[C@@H]2O1 (single isomer, unassigned) [103 (diastereomer 2)] |  | 1000 to 10000 | < 1000 | 1000 to 10000 | < 1000 | < 1000 | 10000 to 100000 | 1000 to 10000 | 10000 to 100000 |  | 10000 to 100000 | 1000 to 10000 | < 1000 | 
